Laboratory results reported in patent US6864262B2, “1-(2-m-methanesulfonamidophenylethyl)-4-(m-trifluoromethylphenyl) piperazine and pharmaceutically acceptable salts and solvents thereof” (Eli Lilly and Company, priority 2000, dated 2005).
pKi: −log10 of the molar value.

What was measured:
[1] = biological target: T1, 5-HT1B (Homo sapiens, UniProt P28222); assay: Binding affinity at cloned human serotonin receptors
T1 construct: expressed in transfected cells

[2] = biological target: T2, 5-HT1D (Homo sapiens, UniProt P28221); assay: as above
T2 construct: expressed in transfected cells

[3] = biological target: T3, 5-HT7 (Homo sapiens, UniProt P34969); assay: as above
T3 construct: expressed in transfected cells

[4] = biological target: T4, 5-HT1F (Homo sapiens, UniProt P30939); assay: as above
T4 construct: expressed in transfected cells
T4 sequence (P30939 1-366): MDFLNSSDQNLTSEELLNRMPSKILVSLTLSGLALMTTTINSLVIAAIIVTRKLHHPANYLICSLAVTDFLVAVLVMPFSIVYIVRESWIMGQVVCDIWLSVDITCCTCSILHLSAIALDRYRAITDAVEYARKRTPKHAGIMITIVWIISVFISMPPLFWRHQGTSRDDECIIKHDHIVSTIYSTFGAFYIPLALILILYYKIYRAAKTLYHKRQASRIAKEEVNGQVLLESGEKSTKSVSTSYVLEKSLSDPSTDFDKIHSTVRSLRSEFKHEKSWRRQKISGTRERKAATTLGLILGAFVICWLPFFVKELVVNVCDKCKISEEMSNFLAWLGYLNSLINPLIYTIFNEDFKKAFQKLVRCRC

[5] = biological target: T5, 5-HT1E (Homo sapiens, UniProt P28566); assay: as above
T5 construct: expressed in transfected cells

[6] = biological target: T6, 5-HT1A (Homo sapiens, UniProt P08908); assay: as above
T6 construct: expressed in transfected cells
T6 sequence (P08908 1-422): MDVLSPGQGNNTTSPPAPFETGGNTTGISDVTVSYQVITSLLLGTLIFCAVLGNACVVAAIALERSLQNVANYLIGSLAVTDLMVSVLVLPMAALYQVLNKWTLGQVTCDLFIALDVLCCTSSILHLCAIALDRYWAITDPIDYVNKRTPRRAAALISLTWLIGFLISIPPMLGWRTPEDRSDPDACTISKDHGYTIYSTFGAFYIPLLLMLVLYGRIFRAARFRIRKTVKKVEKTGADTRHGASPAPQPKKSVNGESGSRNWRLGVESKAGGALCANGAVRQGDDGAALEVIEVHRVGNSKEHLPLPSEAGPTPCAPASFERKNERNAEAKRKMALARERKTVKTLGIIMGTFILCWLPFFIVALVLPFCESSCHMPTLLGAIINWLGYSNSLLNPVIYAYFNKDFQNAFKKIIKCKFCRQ

[7] = system: Adult female cats; assay: Transvesical cystometrograms and periurethral EMG in anesthetized cats, acetic acid infusion
Protocol: Adult female cats were anesthetized with alpha chloralose (50-75 mg/kg i.v.) One catheter was inserted into the carotid artery for measuring systemic blood pressure and heart rate. A second catheter was inserted in the radial vein for administering drugs. Following a midline laparotomy, the bladder was cannulated through the dome to allow infusion of fluids and recording of intravesical pressure. The urethra remained patent to allow expulsion of fluids during reflex micturition.
Transvesical cystometrograms (CMGs) were recorded by emptying the bladder, beginning infusion (0.5 ml/min) with saline, and noting the volume at which fluid release and bladder contraction occurred (i.e. micturition). This volume is defined as bladder capacity. EMG activity was recorded from the periurethral musculature with bipolar hook electrodes placed within 0.5 cm of the urethral meatus via an intravaginal approach. After establishing bladder capacity and EMG activity under conditions of saline infusion, the infusion cannula was switched to infuse 0.5% acetic acid solution and cystometry repeated.
Following cystometry, the bladder was allowed to continuously fill, which produced rhythmic bladder contractions accompanied by fluid release. During this time of rhythmic bladder activity, vehicle or drug was administered. Within 5 minutes, the bladder was emptied; another CMG was performed, and bladder capacity and EMG activity were again measured. The bladder was then continuously filled to produce rhythmic contractions with fluid release, and the frequency of these rhythmic contractions was measured over a fifteen minute period to record drug effects on contraction frequency. This procedure was repeated with increasing doses of drug to produce a cumulative dose response curve.
All other drugs were dissolved in saline.

[8] = biological target: T2, 5-HT1D; assay: Functional data in cloned human serotonin receptors; format: biochemical
[9] = biological target: T4, 5-HT1F; assay: as above; format: biochemical
[10] = biological target: T6, 5-HT1A; assay: as above; format: biochemical
[11] = biological target: T1, 5-HT1B; assay: as above; format: biochemical
[12] = anesthetized cat, i.v., cumulative doses, acetic acid infusion
[13] = vs 1-(2-p-methanesulfonamidophenylethyl)-4-(m-trifluoromethylphenyl)piperazine
[14] = listed as compound of formula I

T2 sequence (P28221 whole entry): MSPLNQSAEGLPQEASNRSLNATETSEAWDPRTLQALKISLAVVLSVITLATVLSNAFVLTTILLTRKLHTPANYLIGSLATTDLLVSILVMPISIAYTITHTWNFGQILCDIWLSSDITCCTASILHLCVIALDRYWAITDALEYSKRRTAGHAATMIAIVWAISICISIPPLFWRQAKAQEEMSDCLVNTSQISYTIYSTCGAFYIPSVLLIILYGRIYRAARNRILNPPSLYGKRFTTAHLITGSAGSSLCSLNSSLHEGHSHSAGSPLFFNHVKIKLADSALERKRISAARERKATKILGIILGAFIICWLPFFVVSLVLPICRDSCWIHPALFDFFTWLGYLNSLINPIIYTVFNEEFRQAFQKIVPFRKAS
T1 sequence (P28222 whole entry): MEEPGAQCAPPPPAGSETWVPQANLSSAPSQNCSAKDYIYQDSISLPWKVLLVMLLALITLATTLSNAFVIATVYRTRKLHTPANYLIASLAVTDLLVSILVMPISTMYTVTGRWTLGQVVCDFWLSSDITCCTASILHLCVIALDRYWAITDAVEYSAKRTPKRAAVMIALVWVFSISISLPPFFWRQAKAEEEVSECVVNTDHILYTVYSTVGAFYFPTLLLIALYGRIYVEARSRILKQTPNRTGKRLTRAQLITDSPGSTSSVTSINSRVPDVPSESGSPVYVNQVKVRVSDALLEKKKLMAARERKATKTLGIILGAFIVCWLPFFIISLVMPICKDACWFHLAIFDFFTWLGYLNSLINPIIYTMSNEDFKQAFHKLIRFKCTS
T5 sequence (P28566 whole entry): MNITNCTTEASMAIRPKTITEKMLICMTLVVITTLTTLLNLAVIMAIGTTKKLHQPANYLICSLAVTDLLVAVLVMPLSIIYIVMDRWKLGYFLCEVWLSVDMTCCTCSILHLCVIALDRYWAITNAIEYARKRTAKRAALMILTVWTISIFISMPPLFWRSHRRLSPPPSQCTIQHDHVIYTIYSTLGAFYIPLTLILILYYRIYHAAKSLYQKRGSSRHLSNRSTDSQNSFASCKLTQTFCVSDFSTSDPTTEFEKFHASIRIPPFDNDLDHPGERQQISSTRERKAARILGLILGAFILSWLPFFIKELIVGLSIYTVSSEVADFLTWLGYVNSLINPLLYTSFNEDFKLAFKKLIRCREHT
T3 sequence (P34969 whole entry): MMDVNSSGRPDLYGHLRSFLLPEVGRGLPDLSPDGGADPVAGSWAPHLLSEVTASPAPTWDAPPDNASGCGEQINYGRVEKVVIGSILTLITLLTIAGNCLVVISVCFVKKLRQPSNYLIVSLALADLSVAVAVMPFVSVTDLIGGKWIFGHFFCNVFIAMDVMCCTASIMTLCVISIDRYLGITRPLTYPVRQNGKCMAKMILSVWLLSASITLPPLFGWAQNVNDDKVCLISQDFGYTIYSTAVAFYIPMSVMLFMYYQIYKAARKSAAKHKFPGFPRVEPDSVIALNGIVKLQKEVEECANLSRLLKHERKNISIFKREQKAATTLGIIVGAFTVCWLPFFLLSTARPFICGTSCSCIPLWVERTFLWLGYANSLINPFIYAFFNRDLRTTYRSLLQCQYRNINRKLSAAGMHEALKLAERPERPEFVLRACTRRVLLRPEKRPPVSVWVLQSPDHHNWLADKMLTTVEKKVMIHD

CS(=O)(=O)Nc1cccc(CCN2CCN(c3cccc(C(F)(F)F)c3)CC2)c1.O=C(O)C(=O)O
melting point: 164 °C

CS(=O)(=O)Nc1cccc(CCN2CCN(c3cccc(C(F)(F)F)c3)CC2)c1.Cl
melting point: 198 to 199 °C

CS(=O)(=O)Nc1ccc(CCN2CCN(c3cccc(C(F)(F)F)c3)CC2)cc1 [1-(2-p-methanesulfonamidophenylethyl)-4-(m-trifluoromethylphenyl)piperazine, reference compound]
pKi [1]: 8.02
pKi [2]: 7.26
pKi [3]: 7.35
% displacement, 5-HT1F ([4]; @ 1000 nM): 14% @ 1000
% displacement, 5-HT1E ([5]; @ 1000 nM): 5% @ 1000
pKi [6]: 8.46

COc1ccc(CNC(=O)/C=C/c2ccc3[nH]cc(CCN(C)C)c3c2)cc1 [GR46611, reference compound]
bladder capacity [7, 12]: dose-dependent increases
external urethral sphincter (EUS) EMG activity [7, 12]: increase
frequency of micturition contractions [7, 12]: reduced

COc1ccc(NC(=O)c2ccc(-c3ccc(-c4noc(C)n4)cc3C)cc2)cc1N1CCN(C)CC1 [GR127935, reference compound]
bladder capacity [7, 12]: dose-dependent increases
external urethral sphincter (EUS) EMG activity [7, 12]: increase
frequency of micturition contractions [7, 12]: reduced

CS(=O)(=O)Nc1cccc(CCN2CCN(c3cccc(C(F)(F)F)c3)CC2)c1 [LY217101, 1-(2-m-methanesulfonamidophenylethyl)-4-(m-trifluoromethylphenyl)piperazine]
pKi [1]: 8.77
fold higher affinity for the 5-HT1B receptor than the p-regioisomer [1, 13]: 56 fold
pKi [2]: 8.92
fold higher affinity for the 5-HT1D receptor than the p-regioisomer [2, 13]: 45 fold
Emax [8]: 93.4%
functional character at 5-HT1D ([8]; listed as Formula 1): Agonist
functional character at 5-HT1D [8, 14]: agonist
Emax [9]: 95.5%
functional character at 5-HT1A ([10]; listed as Formula 1): Agonist
functional character at 5-HT1A [10, 14]: agonist
pKi [3]: 6.98
pKi [4]: 7.49
Emax [11]: 88.2%
functional character at 5-HT1B ([11]; listed as Formula 1): Agonist
functional character at 5-HT1B [11, 14]: agonist
pKi [5]: 5.41
EMG activity ([7]; LY217101 given after WAY100635): no longer produces
bladder capacity ([7]; LY217101 given after WAY100635): increase
bradycardia ([7]; LY217101 given after WAY100635): no longer produces
frequency of micturition contractions ([7]; LY217101 given after WAY100635): continued to reduce
hypotension ([7]; LY217101 given after WAY100635): no longer produces
bradycardia ([7]; anesthetized cat, i.v.): induced
hypotension ([7]; anesthetized cat, i.v.): induced
bladder capacity [7, 12]: dose-dependent increases
external urethral sphincter (EUS) EMG activity [7, 12]: increase
frequency of micturition contractions [7, 12]: reduced
pKi [6]: 9.02

COc1ccccc1N1CCN(CCN(C(=O)C2CCCCC2)c2ccccn2)CC1 [WAY100635, reference compound]
reversal of hypotension, bradycardia, decrease in contraction frequency and increase in EMG activity induced by the compound of Formula I ([7]; anesthetized cat, WAY100635 given after compound of Formula I): partially reversed

CN(C)CCc1c[nH]c2ccc(C[C@H]3COC(=O)N3)cc12 [zolmitriptan, reference compound]
bladder capacity [7, 12]: dose-dependent increases
external urethral sphincter (EUS) EMG activity [7, 12]: increase
frequency of micturition contractions [7, 12]: reduced
